Reference: patent publication US10526287B2, “LSD1 inhibitors and uses thereof” (Constellation Pharmaceuticals, Inc., priority 2015, dated 2020)
Counter-ions that a name gives are not always drawn. Like-named read-outs stand apart in the source and are kept apart here.

Target: LSD1 (Homo sapiens, UniProt O60341)
Experiment: Biochemical assay for LSD1 activity (LSD1 demethylase TR-FRET)
Details: biotinylated H3K4me1 peptide, 50 minutes at room temperature, TR-FRET, read-out: LSD1_Pep_TR-FRET_1.0 (IC50 T50)

| Compound | IC50 (Table 6) [nM] | also measured |
| --- | --- | --- |
| CC/C(=C\c1ccccc1)[C@@H]1C[C@H]1NC1CC2(C1)CN(Cc1ccc(C(=O)O)cc1C)C2 (single isomer, unassigned) [Compound 254] | – | IC50 (Table 7): < 100 nM |
| CC/C(=C\c1ccccc1)[C@@H]1C[C@H]1NC[C@H]1C[C@H](NCC(C)(C)C(=O)O)C1 (racemic) [Compound 233] | – | IC50 (Table 7): < 100 nM |
| C/C(=C\c1ccccc1)[C@@H]1C[C@H]1N[C@H]1CC[C@H](NCc2ccc(C(=O)O)cc2)CC1 (single isomer, unassigned) [Compound 150, 4-((((trans)-4-(((trans)-2-((E)-1-phenylprop-1-en-2-yl)cyclopropyl)amino)cyclohexyl)amino)methyl)benzoic acid bis(trifluoroacetic acid) salt] | < 100 | – |
| CC/C(=C\c1ccccc1)[C@@H]1C[C@H]1NCc1ccccc1CN (racemic) [Compound 247, (trans)-N-(2-(aminomethyl)benzyl)-2-((E)-1-phenylbut-1-en-2-yl)cyclopropan-1-amine] | – | IC50 (Table 7): < 100 nM |
| C/C(=C\c1ccccc1)[C@@H]1C[C@H]1N[C@H]1CC[C@@H](NCC(C)(C)C(=O)O)CC1 (single isomer, unassigned) [Compound 149, 2,2-dimethyl-3-(((cis)-4-(((trans)-2-((E)-1-phenylprop-1-en-2-yl)cyclopropyl)amino)cyclohexyl)amino)propanoic acid bis(trifluoroacetic acid) salt] | < 100 | – |
| CC(=Cc1ccc(C#N)cc1)C1CC1N[C@H]1CC[C@H](N)CC1 (relative stereo) [Compound 132, 4-(2-(2-(((trans)-4-aminocyclohexyl)amino)cyclopropyl)prop-1-en-1-yl)benzonitrile Dihydrochloride] | > 10000 | – |
| CC/C(=C\c1ccccc1)[C@@H]1C[C@H]1NC1CC2(C1)CN(Cc1cnc(C(=O)O)cn1)C2 (single isomer, unassigned) [Compound 256] | – | IC50 (Table 7): < 100 nM |
| CC/C(=C\c1ccccc1)[C@@H]1C[C@H]1N[C@H]1CC[C@H](NCCOCC(=O)O)CC1 (single isomer, unassigned) [Compound 162, 2-(2-(((trans)-4-(((trans)-2-((E)-1-phenylbut-1-en-2-yl)cyclopropyl)amino)cyclohexyl)amino)ethoxy)acetic acidbis(trifluoroacetic acid salt)] | < 100 | – |
| CC(=Cc1ccc(C#N)cc1)C1CC1N[C@H]1CC[C@@H](N)CC1 (relative stereo) [Compound 131, 4-(2-(2-(((cis)-4-aminocyclohexyl)amino)cyclopropyl)prop-1-en-1-yl)benzonitrile Dihydrochloride] | > 10000 | – |
| C/C(=C\c1ccccc1)[C@@H]1C[C@H]1N[C@H]1CC[C@H](NCCC(=O)N2CCCC2)CC1 (single isomer, unassigned) [Compound 146, 3-(((trans)-4-(((trans)-2-((E)-1-phenylprop-1-en-2-yl)cyclopropyl)amino)cyclohexyl)amino)-1-(pyrrolidin-1-yl)propan-1-one bis(trifluoroacetic acid) salt] | < 100 | – |
| CC/C(=C\c1ccccc1)[C@@H]1C[C@H]1NC[C@H]1CC[C@H](NCc2ccc(C(=O)O)cc2)CC1 (racemic) [Compound 245, 4-((((trans)-4-((((trans)-2-((E)-1-phenylbut-1-en-2-yl)cyclopropyl)amino)methyl)cyclohexyl)amino)methyl)benzoic Acid Bis Trifluoroacetate] | – | IC50 (Table 7): < 100 nM |
| O=C(O)c1ccc(CN2CCC(CNC3CC3/C=C/c3ccccc3)CC2)cc1 (stereo not drawn) [Compound 101, (E)-4-((4-(((2-styrylcyclopropypamino)methyl)piperidin-1-yl)methyl)benzoic Acid Dihydrochloride] | – | IC50 (Table 5): 100 to 1000 nM |
| CC/C(=C\c1ccccc1)[C@@H]1C[C@H]1NC1CC2(C1)CN(Cc1ccc(C(=O)O)cn1)C2 (single isomer, unassigned) [Compound 249, 6-((6-(((1R,2S or 1S,2R)-2-(E)-1-phenylbut-1-en-2-yl)cyclopropyl)amino)-2-azaspiro[3.3]heptan-2-yl)methyl)nicotinic Acid Bis Trifluoroacetate] | – | IC50 (Table 7): < 100 nM |
| CC/C(=C\c1ccccc1)[C@@H]1C[C@H]1NCC1(C)CN(Cc2ccc(C(=O)O)cc2)C1 (racemic) [Compound 235] | – | IC50 (Table 7): < 100 nM |
| C/C(=C\c1ccccc1)[C@@H]1C[C@H]1N[C@H]1CC[C@@H](NCCC#N)CC1 (single isomer, unassigned) [Compound 156, 3-(((cis)-4-(((trans)-2-((E)-1-phenylprop-1-en-2-yl)cyclopropyl)amino)cyclohexyl)amino)propanenitrile bis(trifluoroacetic acid) salt] | < 100 | – |
| CNC(=O)CCCN[C@H]1CC[C@@H](N[C@@H]2C[C@H]2/C(C)=C/c2ccccc2)CC1 (single isomer, unassigned) [Compound 145, N-methyl-4-(((cis)-4-(((trans)-2-((E)-1-phenylprop-1-en-2-yl)cyclopropyl)amino)cyclohexyl)amino)butanamide bis(trifluoroacetic acid) salt] | < 100 | – |
| CCS(=O)(=O)CCN1CCC(CNC2CC2/C=C/c2ccccc2)CC1 (stereo not drawn) [Compound 113] | – | IC50 (Table 5): < 100 nM |
| CC/C(=C\c1ccccc1)[C@@H]1C[C@H]1N[C@H]1CC[C@H](NCC2(CO)COC2)CC1 (single isomer, unassigned) [Compound 161, (3-((((trans)-4-(((trans)-2-((E)-1-phenylbut-1-en-2-yl)cyclopropyl)amino)cyclohexyl)amino)methyl)oxetan-3-yl)methanolbis(trifluoroacetic acid salt)] | < 100 | – |
| CC/C(=C\c1ccccc1)[C@@H]1C[C@H]1NC1CC2(C1)CN(Cc1ccc(C(=O)O)cc1)C2 (single isomer, unassigned) [Compound 250] | – | IC50 (Table 7): < 100 nM |
| CC/C(=C\c1ccccc1)[C@@H]1C[C@H]1NCc1cnc(N)nc1 (racemic) [Compound 246, 5-((((trans)-2-((E)-1-phenylbut-1-en-2-yl)cyclopropyl)amino)methyl)pyrimidin-2-amine Hydrochloride] | – | IC50 (Table 7): < 100 nM |
| CC1(N)CC1/C=C/c1ccccc1 (stereo not drawn) [Compound 112, 1-methyl-2-((E)-styryl)cyclopropanamine] | – | IC50 (Table 5): 100 to 1000 nM |
| C/C(=C\c1ccccc1)[C@@H]1C[C@H]1N[C@H]1CC[C@H](NCCCC(=O)O)CC1 (racemic) [Compound 164, 4-(((trans)-4-(((trans)-2-((E)-1-phenylprop-1-en-2-yl)cyclopropyl)amino)cyclohexyl)amino)butanoic Acid bis(trifluoroacetic Acid) Salt] | < 100 | – |
| CC/C(=C\c1ccccc1)[C@@H]1C[C@H]1N[C@H]1CC[C@H](NCc2c(OC)cc(C)[nH]c2=O)CC1 (single isomer, unassigned) [Compound 160, 4-methoxy-6-methyl-3-((((trans)-4-(((trans)-2-((E)-1-phenylbut-1-en-2-yl)cyclopropyl)amino)cyclohexyl)amino)methyl)pyridin-2(1H)-one bis(trifluoroacetic acid salt)] | < 100 | – |

The next lines start with results.

| IC50 (Table 6) [nM] | Compound | also measured |
| --- | --- | --- |
| 100 to 1000 | CC/C(=C\c1ccccc1)[C@@H]1C[C@H]1NC1CCC(NCc2cnn(CC(=O)O)c2)CC1 (mixture of isomers) [Compound 210, 2-(4-(((4-(((trans)-2-((E)-1-phenylbut-1-en-2-yl)cyclopropyl)amino)cyclohexyl)amino)methyl)-1H-pyrazol-1-yl)acetic Acid Dihydrochloride] | – |
| < 100 | C/C(=C\c1ccccc1)[C@@H]1C[C@H]1NC1CCN(CCC(=O)N(C)C)CC1 (racemic) [Compound 198, N,N-dimethyl-3-(4-(((trans)-2-((E)-1-phenylprop-1-en-2-yl)cyclopropyl)amino)piperidin-1-yl)propanamide Dihydrochloride] | – |
| < 100 | CC(C)/C(=C\c1ccccc1)[C@@H]1C[C@H]1NC1CCNCC1 (racemic) [Compound 277, N-((trans)-2-((E)-3-methyl-1-phenylbut-1-en-2-yl)cyclopropyl)piperidin-4-amine Dihydrochloride] | – |
| < 100 | CCC1(NC2CCNCC2)CC1/C(C)=C/c1ccccc1 (stereo not drawn) [Compound 174, bis(trifluoroacetic Acid) Salt] | – |
| < 100 | Fc1ccccc1/C=C/C1CC1NCC1CCNCC1 (stereo not drawn) [Compound 186, (E)-2-(2-fluorostyryl)-N-(piperidin-4-ylmethyl)cyclopropan-1-amine Dihydrochloride] | – |
| < 100 | CC/C(=C\c1ccccc1)[C@@H]1C[C@H]1N[C@H]1CC[C@H](NCC2(C(=O)O)CC2)CC1 (racemic) [Compound 223, 1-((((trans)-4-(((trans)-2-((E)-1-phenylbut-1-en-2-yl)cyclopropyl)amino)cyclohexyl)amino)methyl)cyclopropane-1-carboxylic Acid] | – |
| 1000 to 10000 | COc1ccc(/C=C(\C)[C@@H]2C[C@H]2N)cc1 [compound 130, 2,2,2-trifluoroacetate] | – |
| < 100 | CC/C(=C\c1ccccc1)[C@@H]1C[C@H]1N[C@H]1CC[C@H](NCCCC(=O)O)CC1 (relative stereo) [Compound 180, 4-(((trans)-4-(((trans)-2-((E)-1-phenylbut-1-en-2-yl)cyclopropyl)amino)cyclohexyl)amino)butanoic Acid bis(trifluoroacetic Acid) Salt] | – |
| 100 to 1000 | CC/C(=C\c1ccccc1)[C@@H]1C[C@H]1N[C@H]1CC[C@@H](N(C)CCC(=O)O)CC1 (racemic) [Compound 213, 3-(methyl((cis)-4-(((trans)-2-((E)-1-phenylbut-1-en-2-yl)cyclopropyl)amino)cyclohexyl)amino)propanoic Acid Dihydrochloride] | – |
| < 100 | C/C(=C\c1ccccc1)[C@@H]1C[C@H]1NC1CCN(CCC(=O)O)CC1 (racemic) [Compound 199, 3-(4-(((trans)-2-((E)-1-phenylprop-1-en-2-yl)cyclopropyl)amino)piperidin-1-yl)propanoic Acid Dihydrochloride] | – |
